Experimental data taken from patent EP4759816A1, “UREA-CONTAINING […] ß-LACTAMASE INHIBITOR, PREPARATION METHOD THEREFOR AND USE THEREOF” (priority 2023, dated 2025).
Like-named read-outs stand apart in the source and are kept apart here.

Tests used:
KPC-2 = KPC-2 (Klebsiella pneumoniae, UniProt Q9F663); assay: β-Lactamase inhibitory activity test, nitrocefin substrate; assay type: biochemical
Method: (§1) The IC50 of β-lactamase inhibitors against β-lactamases was tested using nitrocefin as the substrate. The enzyme and serially diluted β-lactamase inhibitor were incubated in 50 mM phosphate buffer (containing 0.1 mg/mL bovine serum albumin) at 37°C for 10 minutes. The reaction was initiated by adding 100 µM nitrocefin, and the reaction temperature was set to 37°C. The absorbance at 490 nm was recorded every minute for a total of 1 hour. The initial reaction rate was calculated, and the IC50 was calculated using GraphPad Prism software. Table 4. Inhibitory activity (IC50, mg/L) of compounds against β-lactamases

OXA-10 = OXA-10 (Pseudomonas aeruginosa, UniProt P14489); assay: as above; assay type: biochemical
Method: as §1

OXA-23 = OXA-23 (Acinetobacter baumannii, UniProt Q9L4P2); assay: as above; assay type: biochemical
Method: as §1

TEM-1 = TEM-1 (Escherichia coli, UniProt P62593); assay: as above; assay type: biochemical
Method: as §1

E. Coli NCTC 13353 = assay: MIC by broth microdilution, β-lactam antibiotic combined with β-lactamase inhibitor; assay type: cell-based; details: Escherichia coli, NCTC13353; E. Coli NCTC 13353, expresses CTX-M-15; MIC of the antibiotic, inhibitor fixed at 4 mg/L; read-out: Antibacterial Activity (MIC50)
Method: (§2) The minimum inhibitory concentration (MIC) of the Example compounds (at a concentration of 4 mg/L) in combination with β-lactam antibiotics (ceftazidime, cefepime, meropenem, imipenem, aztreonam) against bacterial strains was tested using the broth microdilution method recommended by the Clinical and Laboratory Standards Institute (CLSI, formerly NCCLs) [Methods for Dilution Antimicrobial Susceptibility Tests for Bacteria That Grow Aerobically; Approved Standard-tenth Edition M07-A10, 2015]. The specific test materials and procedures are as follows.
(§3) The standard strains used in this experiment were purchased ATCC strains. The clinical strains used were strains resistant to some or all marketed β-lactam antibiotics, isolated and identified by domestic public hospitals, and the types of β-lactamases they express were determined. Before the experiment, each bacterial strain was purified by streaking single colonies on an agar plate, and fresh bacterial cultures grown overnight at 37°C were appropriately diluted for the experiment.
(§4) CAMHB (Cation Adjusted Mueller-Hinton) medium, incubated at 35-37°C in air for 16-20 h.
(§5) CAMHB Formula: Acid-hydrolyzed casein (17.5 g/L), beef extract (3.0 g/L), soluble starch (1.5 g/L), calcium ions (20-25 mg/L), magnesium ions (10-12.5 mg/L).
(§6) Stock solutions at 4 times the working concentration were prepared in CAMHB broth for the combinations of antibiotics (ceftazidime, cefepime, meropenem, aztreonam) and Example compounds. The final concentrations of antibiotics in the stock solutions were 256, 128, 64, 32, 16, 8, 4, 2, 1, 0.5, 0.25, 0.125 mg/L, respectively. The final concentration of avibactam, relebactam, or Example compounds was 4 mg/L.
(§7) Several colonies were picked from an 18-24 h cultured agar plate and suspended directly in sterile physiological saline to prepare a bacterial suspension. The turbidity of the suspension was adjusted to 0.5 McFarland standard. The adjusted bacterial suspension was diluted with CAMHB broth to (4-8) × 10^5 CFU/mL and used immediately.
(§8) Test Group: 50 µL of the antibiotic (ceftazidime, cefepime, meropenem, imipenem, aztreonam) stock solution and 50 µL of the β-lactamase inhibitor (avibactam, relebactam, or Example compound) stock solution were added to wells 1 to 12 of a sterile 96-well polystyrene plate. Then, 100 µL of CAMHB containing the test bacterial suspension was added to each well, making a total volume of 200 µL per well. The final drug concentrations in the wells were 64, 32, 16, 8, 4, 2, 1, 0.5, 0.25, 0.125, 0.06, 0.03 mg/L, respectively. […]
(§9) The inoculated 96-well polystyrene plates were sealed and placed in an incubator at 35-37°C for 16-20 h before reading the results. […]

E. coli ATCC 25922 = assay: as above; assay type: cell-based; details: Escherichia coli, ATCC25922; E. coli ATCC 25922, β-lactamase expressed: -; MIC of the antibiotic, inhibitor fixed at 4 mg/L; read-out: Antibacterial Activity (MIC50)
Method: as §2, §3, §4, §5, §6, §7, §8, §9

E. coli ATCC 35218 = assay: as above; assay type: cell-based; details: Escherichia coli, ATCC35218; E. coli ATCC 35218, expresses TEM-1; MIC of the antibiotic, inhibitor fixed at 4 mg/L; read-out: Antibacterial Activity (MIC50)
Method: as §2, §3, §4, §5, §6, §7, §8, §9

P. aeruginosa ATCC 27853 = assay: as above; assay type: cell-based; details: Pseudomonas aeruginosa, ATCC27853; P. aeruginosa ATCC 27853, expresses AmpC; MIC of the antibiotic, inhibitor fixed at 4 mg/L; read-out: Antibacterial Activity (MIC50)
Method: as §2, §3, §4, §5, §6, §7, §8, §9

K.Pneumoniae BAA-1705 = assay: as above; assay type: cell-based; details: Klebsiella pneumoniae, BAA1705; K.Pneumoniae BAA-1705, expresses KPC-2; MIC of the antibiotic, inhibitor fixed at 4 mg/L; read-out: Antibacterial Activity (MIC50)
Method: CAMHB (Cation Adjusted Mueller-Hinton) medium, incubated at 35-37°C in air for 16-20 h. […]

[1] = TEM-1, enzyme family A, 100 µM nitrocefin, 37°C, 10 minutes preincubation, read-out: Inhibitory activity (IC50)

Chain of TEM-1 (P62593 24-286 limits assumed): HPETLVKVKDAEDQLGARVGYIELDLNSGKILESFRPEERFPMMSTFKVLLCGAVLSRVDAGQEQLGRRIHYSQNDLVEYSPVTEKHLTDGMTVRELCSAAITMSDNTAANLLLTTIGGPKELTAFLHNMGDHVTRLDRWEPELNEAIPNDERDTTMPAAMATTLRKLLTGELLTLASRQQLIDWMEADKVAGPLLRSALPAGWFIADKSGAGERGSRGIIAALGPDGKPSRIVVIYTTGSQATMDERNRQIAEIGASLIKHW
Chain of KPC-2 (Q9F663 25-293 limits assumed): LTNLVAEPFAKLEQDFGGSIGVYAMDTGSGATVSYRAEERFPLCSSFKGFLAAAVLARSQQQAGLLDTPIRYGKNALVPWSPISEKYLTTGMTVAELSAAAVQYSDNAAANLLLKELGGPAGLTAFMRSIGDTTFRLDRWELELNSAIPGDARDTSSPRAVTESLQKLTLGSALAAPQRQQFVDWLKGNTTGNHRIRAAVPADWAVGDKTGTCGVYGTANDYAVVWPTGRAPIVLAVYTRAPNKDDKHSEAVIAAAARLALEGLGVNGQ
Chain of OXA-23 (Q9L4P2 18-273): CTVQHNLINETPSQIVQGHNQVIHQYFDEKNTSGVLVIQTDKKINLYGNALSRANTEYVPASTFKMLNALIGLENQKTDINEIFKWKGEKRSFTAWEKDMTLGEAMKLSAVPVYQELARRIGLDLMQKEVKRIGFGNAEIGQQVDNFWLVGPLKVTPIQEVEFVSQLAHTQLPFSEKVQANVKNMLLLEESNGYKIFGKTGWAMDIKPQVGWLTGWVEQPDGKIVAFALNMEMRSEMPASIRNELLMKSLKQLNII
Chain of OXA-10 (P14489 20-266): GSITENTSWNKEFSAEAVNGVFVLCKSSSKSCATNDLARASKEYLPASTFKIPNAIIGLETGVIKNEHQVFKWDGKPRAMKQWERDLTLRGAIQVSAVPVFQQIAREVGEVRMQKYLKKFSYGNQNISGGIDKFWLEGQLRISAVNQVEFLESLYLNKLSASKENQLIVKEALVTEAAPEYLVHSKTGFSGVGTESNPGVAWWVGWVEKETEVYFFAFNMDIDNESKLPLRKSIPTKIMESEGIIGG

Row | Compound | IC50 (KPC-2) | IC50 (OXA-10) | IC50 (OXA-23) | IC50 (TEM-1; [1]) | IC50 (TEM-1) | MIC50 (E. Coli NCTC 13353) | MIC50 (E. coli ATCC 25922) | MIC50 (E. coli ATCC 35218) | MIC50 (P. aeruginosa ATCC 27853) | MIC50 (K.Pneumoniae BAA-1705)
1 | CS(=O)(=O)n1ccc2c1CN1CC2N(OS(=O)(=O)O)C1=O (centres unmarked) [Example 2 Compound] | < 1000 nM | < 1000 nM | < 1000 nM | < 1000 nM | – | – | – | – | – | –
2 | Cn1cc(S(=O)(=O)n2ccc3c2CN2C[C@@H]3N(OS(=O)(=O)O)C2=O)cn1 [Example 11 Compound] | < 1000 nM | – | 1000 to 10000 nM | – | < 1000 nM | – | – | – | – | –
3 | NC(=O)C1c2c(ccn2S(=O)(=O)C2CC2)C2CN1C(=O)N2OS(=O)(=O)O (centres unmarked) [Example 15 Compound] | > 100000 nM | – | > 100000 nM | – | > 100000 nM | – | – | – | – | –
4 | O=C1N2Cc3c(ccn3S(=O)(=O)c3cccnc3)[C@H](C2)N1OS(=O)(=O)O [Example 10 Compound] | < 1000 nM | – | < 1000 nM | – | < 1000 nM | – | – | – | – | –
5 | CS(=O)(=O)n1ccc2c1C(C(N)=O)N1CC2N(OS(=O)(=O)O)C1=O (centres unmarked) [Example 14 Compound] | < 1000 nM | – | 10000 to 100000 nM | – | < 1000 nM | – | – | – | – | –
6 | CCS(=O)(=O)n1ccc2c1CN1C[C@@H]2N(OS(=O)(=O)O)C1=O [Example 4 Compound] | < 1000 nM | – | 1000 to 10000 nM | – | < 1000 nM | – | – | – | – | –
7 | CC(C)(O/N=C(\C(=O)N[C@@H]1C(=O)N2C(C(=O)[O-])=C(C[n+]3ccccc3)CS[C@H]12)c1csc(N)n1)C(=O)O [Ceftazidime] | – | – | – | – | – | > 10 µg/mL | 0.1 to 1 µg/mL | 0.1 to 1 µg/mL | 1 to 10 µg/mL | > 10 µg/mL
8 | O=C1N2Cc3c(ccn3S(=O)(=O)c3ccccc3)C(C2)N1OS(=O)(=O)O (centres unmarked) [Example 1 Compound] | < 1000 nM | < 1000 nM | < 1000 nM | < 1000 nM | – | – | – | – | – | –
9 | CS(=O)(=O)n1ccc2c1CN1C[C@@H]2N(OS(=O)(=O)O)C1=O [Example 3 Compound] | < 1000 nM | < 1000 nM | < 1000 nM | < 1000 nM | – | – | – | – | – | –
